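Cultured in 96-well plates, cells were exposed to test compound for 48 hours across five concentrations. GI50 = concentration required for 50% inhibition of growth.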 Active and inactive are the calls of the source. Rule as the data show it: active = GI50 up to about 1.1 µM and inactive = higher.
Columns and labels:
Experiment in all cases: NCI tumour cell line growth inhibition, 48 h
T47D = system: T47D
BT-549 = system: BT-549
SNB-78 = system: SNB-78
M19-MEL = system: M19-MEL
DMS-114 = system: DMS-114
HOP-18 = system: HOP-18
KM-20L2 = system: KM-20L2

Row | Compound | GI50 (T47D) | GI50 (BT-549) | further results
1 | Cc1ccc2c(c1C)C(=O)/C(=C/c1ccccc1C(=O)O)C2 | > 100 µM (inactive) | 20.7 µM (inactive) | –
2 | COC(=O)CCc1cc(O)c2c(c1)C(C(=O)OC)C(c1ccc(O)c(O)c1)O2 (centres undefined) | 6.37 µM (inactive) | 12.5 µM (inactive) | –
3 | COc1cc(/N=C\N(C)C)c2ncccc2c1 | 78 µM (inactive) | 37.1 µM (inactive) | –
4 | C=C(Br)CN(CC(=C)Br)C(C)=O | > 100 µM (inactive) | – | –
5 | COC(=O)C1=C(C)N(NC(=O)Nc2ccccc2)C2(N)N(NC(=O)Nc3ccccc3)C(C)=C(C(=O)OC)C12C(=O)OC (centres undefined) | – | – | GI50 (SNB-78): 26.1 µM (inactive); GI50 (M19-MEL): 25.1 µM (inactive); GI50 (DMS-114): 77.1 µM (inactive); GI50 (HOP-18): 81.8 µM (inactive); GI50 (KM-20L2): > 100 µM (inactive)
6 | CC(C)=CCc1c(O)c(CC=C(C)C)c2oc(-c3ccc(O)cc3O)c(CC=C(C)C)c(=O)c2c1O | 3.97 µM (inactive) | 7.98 µM (inactive) | –
7 | CCN1CCCc2cc3c(C(F)(F)F)cc(=O)oc3cc21 | 65.5 µM (inactive) | 58.2 µM (inactive) | –
8 | C/C(=N\Nc1nc2ccccc2s1)c1ncccn1 | < 0.01 µM (active) | 0.346 µM (active) | –
9 | CN1N=C(c2ccncc2)OC1c1ccc(Cl)cc1Cl (centres undefined) | 60.3 µM (inactive) | – | –
10 | CC1=NN(C(=O)CC(=O)Nc2cccc(C)c2)C(=O)C1/N=N/c1ccc(S(=O)(=O)CCOS(=O)(=O)O)cc1 (centres undefined) | > 34.5 µM (inactive) | – | –
11 | CN(C)c1ccc(C2SCC(=O)N2c2nc3cc4sc(N5C(=O)CSC5c5ccc(N(C)C)cc5)nc4cc3s2)cc1 (centres undefined) | 31.6 µM (inactive) | 22.9 µM (inactive) | –
12 | CCCC(=O)Oc1c2ccsc2c(OC(=O)CCC)c2ccsc12 | 6.37 µM (inactive) | 1.35 µM (inactive) | –
13 | C=C1c2nc3ccccc3n2C=C(c2ccc(Cl)cc2)N1c1ccc(OC)cc1 | – | 2.67 µM (inactive) | –
14 | COC(=O)[C@]12CC[C@H]3CN(C(=O)OCc4ccccc4)[C@H]([C@H]31)[C@H](c1ccccc1)N2 | 34.3 µM (inactive) | 85.5 µM (inactive) | –
15 | CC(=O)O[C@]12CCCCC1C1(O)C(O)CCCC[C@H]12 (some centres undefined) | – | – | GI50 (SNB-78): > 100 µM (inactive); GI50 (M19-MEL): > 100 µM (inactive); GI50 (DMS-114): > 100 µM (inactive); GI50 (HOP-18): > 100 µM (inactive); GI50 (KM-20L2): > 100 µM (inactive)
16 | CC12Nc3c(Cl)cc(Cl)cc3N1C(=O)c1ccccc12 (centres undefined) | > 100 µM (inactive) | 71.6 µM (inactive) | –
17 | CC#CCCCC1(C)CCNC1=S (centres undefined) | – | > 10 µM (inactive) | –
18 | CCOC(=O)C(Cl)(NC(=O)c1c(F)c(F)c(F)c(F)c1F)C(F)(F)F (centres undefined) | > 100 µM (inactive) | > 100 µM (inactive) | –
19 | CS/C=C\C(=O)O[C@H]1C[C@@H]2[C@@H](O)c3occ(C)c3C[C@]2(C)[C@@H](C)C1 | 24.4 µM (inactive) | – | –
20 | CC(C)=CCC/C(C)=C/CC/C(C)=C/CC(CO)N(C)CC/C=C(\C)CCC=C(C)C (centres undefined) | 3.64 µM (inactive) | 14.1 µM (inactive) | –
21 | c1ccc2[nH]c3[nH]c4[nH]c5ccccc5[nH]c4[nH]c3[nH]c2c1 | – | > 100 µM (inactive) | –
22 | CC(=O)C(=CNc1c(C)n(C)n(-c2ccccc2)c1=O)C(C)=O | – | > 100 µM (inactive) | –
23 | CC(C)C1=CC2=C(C(=O)C1=O)C13CCCC(C)(C)C1CC2OC3=O (centres undefined) | 20.4 µM (inactive) | 16.8 µM (inactive) | –
24 | CN(C)CCCN1C(=O)N(CCCN(C)C)c2c3cc(O)ccc3nc3c([N+](=O)[O-])ccc1c23 | 30.3 µM (inactive) | 17.6 µM (inactive) | –
25 | CCC(C)C1NC(=O)C(NC(=O)C(CC(C)C)N(C)C(=O)[C@@H]2CC(O)CN2C(=O)[C@H](C)O)C(C)OC(=O)[C@H](Cc2ccc(OC)cc2)N(C)C(=O)[C@@H]2CCCN2C(=O)[C@H](CC(C)C)NC(=O)C(C)C(=O)[C@H](C(C)C)OC(=O)CC1O (some centres undefined) | 0.0452 µM (active) | 0.189 µM (active) | –
26 | CC1C=C[C@H](Sc2ccccc2)CC[C@@]1(C)O (some centres undefined) | – | – | GI50 (SNB-78): > 100 µM (inactive); GI50 (M19-MEL): > 100 µM (inactive); GI50 (DMS-114): 55.8 µM (inactive); GI50 (KM-20L2): > 100 µM (inactive)
27 | CN(C)Cc1cc(C(=O)/C=C/c2ccc(F)cc2)cc(CN(C)C)c1O | 18 µM (inactive) | – | –
28 | Nc1ccc(-c2nn3c(COc4ccc(Cl)cc4)nnc3s2)cc1 | > 100 µM (inactive) | – | –
